Experimental data published in US20190350918A1, “PPARy AGONIST FOR TREATMENT OF HUNTINGTON'S DISEASE” (Coherus Biosciences, Inc., priority 2017, published 2019).

What was measured:
[1] = test system: R6/2 Huntington's mice; assay: R6/2 Huntington's mice: Huntington disease signs and symptoms; type: in vivo, mouse; details: R6/2 mice; 1 mg/kg, 3 mg/kg, and 6 mg/kg
Procedure: INT-131 is evaluated in R6/2 Huntington's mice. R6/2 mice express mutant human exon 1 of the HTT gene. R6/2 mice develop Huntington phenotypes, which progress over time. These mice display motor and cognitive deficits, cortical cellular degeneration and striatal cellular morphological changes, as well as alterations in cortical and striatal synaptic transmission. In particular, R6/2 mice develop a loss of coordination, tremors, hypokinesis, abnormal gait, neuropathy, and premature death. After mice develop Huntington symptoms, the mice are administered INT-131 or a placebo at a regular dosing interval over a period of time. INT-131 doses include 1 mg/kg, 3 mg/kg, and 6 mg/kg. Huntington disease signs and symptoms are evaluated in each group over the period of time. After mice develop Huntington symptoms, the mice are administered INT-131 or another therapy for treating Huntington's disease at a regular dosing interval over a period of time. INT-131 doses include 1 mg/kg, 3 mg/kg, and 6 mg/kg. Other therapies include those approved for treatment and those in development for treating Huntington's disease.

[2] = test system: adiponectin; assay: 14-day study in healthy subjects: serum adiponectin levels; type: in vivo, human
Procedure: A study was conducted to determine the effect of INT131 on serum adiponectin levels. Thirty healthy subjects were randomly selected to receive either placebo, 0.1 mg INT131, 1 mg INT131 or 4 mg INT131 daily for 14 days. To measure adiponectin levels blood was drawn at Days 1, 4, 8 and 14.

[3] = test system: HbA1c; assay: 24-week study in type 2 diabetes subjects: HbA1c levels; type: in vivo, human
[4] = test system: adiponectin; assay: 24-week randomized, double-blind, placebo-controlled study in type 2 diabetes subjects: serum adiponectin levels; type: in vivo, human
Procedure: A randomized, double-blind, placebo-controlled, 24-week study was conducted in which adiponectin levels were measured. […] 367 subjects with type 2 diabetes (TD2)—a disease in which patient adiponectin levels are reduced—were randomly assigned to receive either 0.5, 1, 2 or 3 milligrams (“mg”) of INT131 besylate, 45 mg of pioglitazone or placebo daily for 24 weeks. To measure adiponectin levels blood was drawn at Weeks 0, 2, 6, 12 and 24. At baseline (Week 0) mean adiponectin levels were 1.94 micrograms per milliliter (“μg/mL”). The mean adiponectin levels at baseline and Week 24, and the mean change in adiponectin levels from baseline (Week 0) to Week 24 are disclosed in Table 1, below. The standard deviation for samples tested in each group is listed in (parenthesis). Mean baseline adiponectin values were similar for the treatment groups.

[5] = test system: HbA1c; details: DePaoli, et al. Diabetes Care 2014; cited from earlier work
[6] = subjects taking INT131 versus pioglitazone; DePaoli, et al. Diabetes Care 2014; cited from earlier work

Structure (SMILES) | Huntington's disease symptoms versus placebo [1] | progression and development of Huntington's disease versus placebo [1] | slowing progression or development and treating signs and symptoms of Huntington's disease versus another therapy [1] | change in serum adiponectin levels Day 1 to Day 14 and over placebo ([2]; 0.1 mg INT131 daily for 14 days) | change in serum adiponectin levels over placebo and from Day 1 to Day 14 ([2]; 1 mg or 4 mg INT131 daily for 14 days) | HbA1c levels as compared to placebo ([3]; 1, 2, and 3 mg doses of INT131, 24 weeks) | reduction of HbA1c levels compared with 45 mg of pioglitazone ([3]; 2 and 3 mg doses of INT131, 24 weeks) | adiponectin levels, treatment comparison with pioglitazone 45 mg ([4]; 0.5 mg, 1 mg, and 3 mg doses of INT131, p≤0.0408) | adiponectin levels, treatment comparison with placebo ([4]; 1 mg, 2 mg, and 3 mg doses of INT131, p≤0.0109) | mean change in adiponectin from baseline to Week 24 with LOCF ([4]; 2 mg group) | mean change in adiponectin from baseline to Week 24 with LOCF ([4]; INT131 0.5 mg group) | mean change in adiponectin from baseline to Week 24 with LOCF ([4]; INT131 1 mg group) | mean change in adiponectin from baseline to Week 24 with LOCF ([4]; INT131 3 mg group) | upregulation of serum adiponectin levels compared with pioglitazone ([4]; INT131 at either 2 or 3 mg versus 45 mg pioglitazone) | reducing HbA1c levels compared with 45 mg of pioglitazone [5] | side effects compared with pioglitazone [6] | mean change in adiponectin from baseline to Week 24 with LOCF ([4]; pioglitazone 45 mg group)
O=S(=O)(Nc1cc(Cl)c(Oc2cnc3ccccc3c2)c(Cl)c1)c1ccc(Cl)cc1Cl [INT131] | reduced Huntington's disease symptoms | slows progression and development | as effective, or more effective | no significant change | significant change | statistically significant reduction | at least as well as 45 mg of pioglitazone | statistically significant | statistically significant | 3.27 µg/mL | 0.56 µg/mL | 1.28 µg/mL | 3.83 µg/mL | greater upregulation | equally efficacious | less edema, weight gain, and hemodilution | 
CCc1ccc(CCOc2ccc(CC3SC(=O)NC3=O)cc2)nc1 (centres unmarked) [Pioglitazone, pioglitazone, reference compound] |  |  |  |  |  |  |  |  |  |  |  |  |  |  |  |  | 2.96 µg/mL
